Laboratory results from patent US11123398B2, “Chemotherapeutic combinations of cationic antimicrobial peptides and chemotherapeutics” (LYTIX BIOPHARMA AS, priority 2014, dated 2021).
Non-standard residues stand in square brackets, D forms with d. Residues, ends and D or L forms follow the SMILES beside them. dBip = N[C@H](Cc1ccc(-c2ccccc2)cc1)C(=O)O; Dip = N[C@H](C(=O)O)C(c1ccccc1)c1ccccc1

Key:
A20 lymphoma = test: LTX-315 with metronomic CY in A20 lymphoma model; assay type: in vivo, Balb/c mice; conditions: metronomic CY, single i.p. 2 mg on day 4
Experimental: Tumor cells were harvested, washed in RPMI-1640 and injected intradermally (i.d.) into the right side of the abdomen in Balb/c mice (5×10^6 A20 cells per mouse/50 μl RPMI-1640). When animals obtained palpable tumors (20-30 mm^2) animals were injected i.p. with a single dose of CY (day 4) dissolved in saline (2.0 mg CY/500 μl saline). […] Tumor size was measured using an electronic caliper and expressed as the area of an ellipse [(maximum dimension/2)×(minimum dimension/2)×π]. Animals were then euthanized when the product of the perpendicular tumor dimensions reached 130 mm^2 or when tumor ulceration developed.

spleen cells = conditions: cited from earlier work
U-87 MG cell line = assay type: cell-based, human; conditions: 4 h
Experimental: (§1) Tumor cells were plated in 96-well flat-bottom microtitration plates (Nunc, Dutscher, Brumath, France) and incubated at 37° C. for 24 hours before treatment in 190 μl of drug-free culture medium supplemented or not with 10% FBS for adherent or suspension growing cell lines, respectively.
(§2) The adherent cell lines were washed once with 200 μl FBS-free culture medium before treatment. Tumor cells were incubated for 4 hours with 10 concentrations of compounds in ¼ dilution step with a top dose of 400 μM (range 4×10^−4 to 4×10^−10 M), with 1% (final concentration) Triton X-100 as positive control and FBS-free culture medium as negative control. The cells (190 μl) were incubated in a 200 μl final volume of FBS-free culture medium containing test substances at 37° C. under 5% CO2.
(§3) Three independent experiments were performed, each concentration being tested in quadruplicate. Control cells were treated with vehicle alone. At the end of treatments, the cytotoxic activity was evaluated by a MTS assay (see § 3.3.).
(§4) Like MTT, MTS is bioreduced by cells into a formazan product that is directly soluble in culture medium without processing, unlike MTT.
(§5) At the end of the cells treatment, 40 μl of a 0.22 μm filtered freshly combined solution of MTS (20 ml at 2 mg/ml, Ref G1111, Batch 235897, Exp March 2009, Promega, Charbonnières, France) and PMS (1 ml at 0.92 mg/ml, Ref P9625, Batch 065K0961, Sigma) in Dulbecco's Phosphate Buffered Saline (DPBS, Ref 17-513Q, Batch 6MB0152, Cambrex), were added in each well. Culture plates were incubated for 2 h at 37° C. Absorbency (OD) were measured at 490 nm in each well using VICTOR^3™ 1420 multilabeled counter (Wallac, PerkinElmer, Courtaboeuf, France).
(§6) IC50: drug concentration to obtain a 50% inhibition of cell proliferation.
(§7) The dose-response curves were plotted using XLFit 3 (IDBS, United Kingdom). The IC50 determination values were calculated using the XLFit 3 software from semi-log curves. Individual IC50 determination values as well as mean and SD values were generated.

T-47D cell line = assay type: cell-based, human; conditions: 4 h
Experimental: as §1, §2, §3, §4, §5, §6, §7

CCRF-CEM/VLB = test: MTS cytotoxicity assay, CCRF-CEM/VLB; assay type: cell-based, human; conditions: IC50 resistant / IC50 sensitive line
Experimental: as §1
The adherent cell lines were washed once with 200 μl FBS-free culture medium before treatment. Tumor cells were incubated for 4 hours with 10 concentrations of compounds in ¼ dilution step with a top dose of 400 μM (range 4×10^−4 to 4×10^−10 M), with 1% (final concentration) Triton X-100 as positive control and FBS-free culture medium as negative control. […]
Three independent experiments were performed, each concentration being tested in quadruplicate. […] At the end of treatments, the cytotoxic activity was evaluated by a MTS assay (see § 3.3.). […]
At the end of the cells treatment, 40 μl of a 0.22 μm filtered freshly combined solution of MTS (20 ml at 2 mg/ml, Ref G1111, Batch 235897, Exp March 2009, Promega, Charbonnières, France) and PMS (1 ml at 0.92 mg/ml, Ref P9625, Batch 065K0961, Sigma) in Dulbecco's Phosphate Buffered Saline (DPBS, Ref 17-513Q, Batch 6MB0152, Cambrex), were added in each well. […] Absorbency (OD) were measured at 490 nm in each well using VICTOR^3™ 1420 multilabeled counter (Wallac, PerkinElmer, Courtaboeuf, France). […]
(§8) Resistance index was calculated using the following formula: […]

[1] = tested on: panel of 10 lymphoma cell lines; assay type: cell-based, human; conditions: conclusion
Experimental: (§9) Tumor cells were plated in 96-well flat-bottom microtitration plates (Nunc, Dutscher, Brumath, France) and incubated at 37° C. for 24 hours before treatment in 190 μl of drug-free and FBS-free culture medium.
[…] compounds in ¼ dilution step with a top dose of 400 μM (range 4×10^−4 to […]), with 1% (final concentration) Triton X-100 as positive control and FBS-free culture medium as negative control. The cells (190 μl) were incubated in a 200 μl final volume of FBS-free culture medium containing test substances at 37° C. under 5% CO2.
(§10) Three independent experiments were performed, each concentration being issued from quadruplicate. Control cells were treated with vehicle alone. At the end of treatments, the cytotoxic activity was evaluated by a MTS assay (see § 3.3 below).
as §4, §5
(§11) 4.1. IC50 Data was Determined as in Example 1

MCF-7/mdr = test: MTS cytotoxicity assay, MCF-7/mdr; assay type: cell-based, human; conditions: IC50 resistant / IC50 sensitive line; doxorubicin resistance
Experimental: as §1, §2, §3, §4, §5, §6, §7, §8
(§12) Resistance index was calculated for each compound for each couple of sensitive and resistant cell lines. Individual resistance index was calculated when IC50 values of both sensitive and corresponding resistant cell lines were determined within same experiment. In addition, resistance index was also calculated ratio of mean IC50 values obtained during three independent experiments.

IGROV-1/CDDP = test: MTS cytotoxicity assay, IGROV-1/CDDP; assay type: cell-based, human; conditions: IC50 resistant / IC50 sensitive line; cisplatin resistance
Experimental: as §1, §2, §3, §4, §5, §6, §7, §8, §12

[2] = tested on: panel of 37 human cancer cell lines; assay type: cell-based; conditions: for IC50: 4 h; for IC50 range against 37 human cancer cell lines: conclusion
Experimental: The adherent cell lines were washed once with 200 μl FBS-free culture medium before treatment. […] compounds in ¼ dilution step with a top dose of 400 μM (range 4×10^−4 to 4×10^−10 M), with 1% (final concentration) Triton X-100 as positive control and FBS-free culture medium as negative control. The cells (190 μl) were incubated in a 200 μl final volume of FBS-free culture medium containing test substances at 37° C. under 5% CO2.
as §3, §4, §5, §6, §7

Hs 445 cell line = assay type: cell-based, human; conditions: 4 h
Experimental: as §9
(§13) Tumor cells were incubated for 4 hours with 10 concentrations of compounds in ¼ dilution step with a top dose of 400 μM (range 4×10^−4 to […]), with 1% (final concentration) Triton X-100 as positive control and FBS-free culture medium as negative control. The cells (190 μl) were incubated in a 200 μl final volume of FBS-free culture medium containing test substances at 37° C. under 5% CO2.
as §10, §4, §5, §11

Raji cell line = assay type: cell-based, human; conditions: 4 h
Experimental: as §9, §13, §10, §4, §5, §11

HL-60/ADR = test: MTS cytotoxicity assay, HL-60/ADR; assay type: cell-based, human; conditions: IC50 resistant / IC50 sensitive line; doxorubicin resistance
Experimental: as §1, §2, §3, §4, §5, §6, §7, §8, §12

Hep G2 cell line = assay type: cell-based, human; conditions: 4 h
Experimental: as §1, §2, §3, §4, §5, §6, §7

| Structure (SMILES) | Duration of tumor growth inhibition (A20 lymphoma) [days] | Relative number of CD19+ and Tregs (spleen cells; after CY administration) | Relative numbers of CD4+ and CD8+ T cells in spleens and LNs (spleen cells; after CY administration) | Drop in spleen cells at low-point (spleen cells; single i.p. injection of 2 mg CY, fourth day after administration) [%] | IC50 (U-87 MG cell line) [µM] | IC50 (T-47D cell line) [µM] | Resistance index (RI), CCRF-CEM/VLB (CCRF-CEM/VLB) | IC50 range against 10 human lymphoma cell lines [1] | Resistance index (RI), MCF-7/mdr (MCF-7/mdr) | Resistance index (RI), IGROV-1/CDDP (IGROV-1/CDDP) | IC50 [2] [µM] | IC50 range against 37 human cancer cell lines [2] | IC50 (Hs 445 cell line) [µM] | IC50 (Raji cell line) [µM] | Resistance index (RI), HL-60/ADR (HL-60/ADR) | IC50 (Hep G2 cell line) [µM] |
| --- | --- | --- | --- | --- | --- | --- | --- | --- | --- | --- | --- | --- | --- | --- | --- | --- |
| O=P1(N(CCCl)CCCl)NCCCO1 (stereo not shown) [CY, cyclophosphamide] | 7 to 10 | decreased sharply | increased | 50 | – | – | – | – | – | – | – | – | – | – | – | – |
| NCCCC[C@@H](N)C(=O)N[C@H](CCCCN)C(=O)N[C@H](Cc1ccc(-c2ccccc2)cc1)C(=O)N[C@H](Cc1c[nH]c2ccccc12)C(=O)N[C@H](CCCCN)C(=O)N[C@H](CCCCN)C(=O)N[C@H](Cc1c[nH]c2ccccc12)C(=O)N[C@H](Cc1c[nH]c2ccccc12)C(=O)N[C@H](CCCCN)C(N)=O [LTX-329, k-k-bip-w-k-k-w-w-k-NH2] (H-[dK][dK][dBip][dW][dK][dK][dW][dW][dK]-NH2; N-terminus assumed) | – | – | – | – | 16.9 ± 1.18 | 2.43 ± 0.34 | 0.76 | micromolar range | 1.07 | 0.46 | 8.17 ± 3.2 | micromolar to ten micromolar range | 2.46 | 8.7 ± 1.7 | 0.80 | – |
| N=C(N)NCCC[C@H](NC(=O)[C@H](Cc1c[nH]c2ccccc12)NC(=O)[C@H](Cc1c[nH]c2ccccc12)NC(=O)[C@H](CCCNC(=N)N)NC(=O)[C@H](CCCNC(=N)N)NC(=O)[C@@H](NC(=O)[C@H](Cc1c[nH]c2ccccc12)NC(=O)[C@H](CCCNC(=N)N)NC(=O)[C@@H](N)CCCNC(=N)N)C(c1ccccc1)c1ccccc1)C(N)=O [LTX-320, R-R-W-Dip-R-R-W-W-R-NH2] (H-RRW[Dip]RRWWR-NH2; N-terminus assumed) | – | – | – | – | – | 3.46 ± 0.22 | – | micromolar range | 1.19 | 0.49 | 7.58 ± 2.79 | micromolar to ten micromolar range | 2.22 | 11.3 ± 3.42 | 0.90 | 16.6 ± 3.15 |
